Experiment: Photoreaction test with cholecalciferol (photostability chamber)
Assay type: physicochemical
Settings: photostability chamber, 1,200,000 LUX, 18.44 hours
Description: Cholecalciferol (vitamin D3) also has poor physiochemical stability and may not ensure stability with time. Generally, cholecalciferol is known to be susceptible to moisture, light, and heat. […] The amount of trans-vitamin D3 (after storage in a photostability chamber under 1,200,000 LUX for 18.44 hours) was increased by about 1.2% with respect to initial level, while the amount of vitamin D3 was reduced by about 10%.

C=C1CC[C@H](O)C/C1=C/C=C1\CCC[C@]2(C)[C@@H]([C@H](C)CCCC(C)C)CC[C@@H]12 [cholecalciferol, Cholecalciferol]
increase of the amount of trans-vitamin D3 with respect to initial level: about 1.2% | reduction of the amount of vitamin D3: about 10%
